# Patent US10653672B2, “Myogenesis promotor, muscle atrophy inhibitor, medical composition and TAZ activator” (National University Corporation Tokyo Medical and Dental …, priority 2014, dated 2020)
# Several values for one entry are separate records, joined by “and”; a condition that tells them apart may be missing. Identical values can stand only once.
# What was measured:
# TEAD reporter = test: Luciferase reporter assay, TEAD reporter; format: cell-based; conditions: Mus musculus, C2C12, 24 h, C2C12 cells expressing reporter and TAZ WT, differentiation medium 24 hours
# Experimental: The effect and its degree on the activity of a reporter, derived from a transcription factor that interacts with TAZ in C2C12 cells, were evaluated. Specifically, C2C12 cells expressing luciferase reporters corresponding to MyoD, TEAD, SMAD and Pax3 and C2C12 cells expressing these luciferase reporters and TAZ were cultured in a culture medium added with IBS008738 or DMSO at a concentration of 10 μM, respectively. […] The line and the error bar indicate the average value and the standard error, *p<0.05, **p<0.01, ns refers to not significant.
# Transfection of the luciferase reporters was performed to the C2C12 cells after being plated at 12-well plates (1×10^5 cells/well) and cultured overnight. As the luciferase reporters, pGL3 Myo-184- (MyoD-), 8×GT-IIC-δ51LucII- (TEAD-), 9×CAGA-MLP-(SMAD-), and p(PRS-1/-4)3- (Pax3-) were transfected to the cells alone or with TAZ. These reporter vectors were from Keiji Miyazawa (Yamanashi University), Hiroshi Sasaki (Kumamoto University) and Hiroki Kurihara (The University of Tokyo).
# Immediately after the transfection, DMSO or IBS008738 was added at a concentration of 10 μM, respectively. After growing the cells to confluence, the cells were transferred to a differentiation medium with DMSO or IBS008738, and cultured for 24 hours before the luciferase assay.
# Balb/c ByJ mice = test: Recovery of cardiotoxin-induced muscle damage; format: in vivo, mouse; conditions: intraperitoneal injection of 100 mM stock on days 2, 4 and 6 after cardiotoxin; day 7
# Experimental: Experiments were conducted with mice according to procedures approved by the Institutional Animal Case and Use Committee (see FIG. 9A to 9F). For the experiments, Balb/c ByJ mice (6 weeks, female) were used. The bar in the figures is 50 μm. The line and the error bar indicate the average value and the standard error, *p<0.05, i.e refers to intramuscular injection, and i.p refers to intraperitoneal injection.
# (1) Cardiotoxin was diluted to 10 μM with phosphate buffered saline (PBS). The cardiotoxin solution (100 μl) was added with 0.3 μL of DMSO, or 0.3 μL of 10 mM IBS008738 stock solution in DMSO, respectively, and the solution was injected to the anterior tibial muscles on the right and the left, respectively. Three mice were used for one experiment, and the experiment was performed twice. The mice were sacrificed at day 5. […]
# (3) Observation of muscle tissues was performed by fixing the anterior tibial muscle with 4% formalin and embedding the same in paraffin or O.C.T. compound, and staining muscle sections of 5 μm with haematoxylin and eosin. Further, Pax 7 was detected with anti-Pax 7 antibody and visualized with 3,3′-diaminobenzidine. […] The number of the Pax7-positive cells and the number of the centrally nucleated muscle fibers were counted at 6 fields at 20-fold magnification. […]
# [1] = system: association of TEAD with CTGF; test: Chromatin immunoprecipitation, TEAD on CTGF promoter; format: cell-based, mouse; conditions: C2C12 cells; 10 μM; differentiation condition 24 hours; protein G sepharose without antibody; listed as IBS008738
# Experimental: (1) Chromatin immunoprecipitation of MyoD, TEAD and Pax3 was performed on C2C12 cells that were cultured under differentiation condition for 24 hours in a culture medium added with IBS008738 or DMSO at a concentration of 10 μM. Myogenin, connective tissue growth factor (CTGF) and MyfS were detected by PCR, respectively. The immunoprecipitation with protein G sepharose was used as a control (Mock ChIP). […] The line and the error bar in the figure indicate the average value and the standard error, *p<0.05, ***p<0.001, ns refers to not significant.
# The Chromatin immunoprecipitation was performed according to the following process. C2C12 cells were cultured to confluence, and then treated with IBS008738 or DMSO at a concentration of 10 μM in a differentiation medium for 24 hours. The cells were crosslinked in 1.42% (v/v) formaldehyde for 15 minutes, and the reaction was quenched by treating with 125 mM glycine for 5 minutes. […] Shearing was analyzed by agarose gel electrophoresis. […] The immunoprecipitated DNA fragments were isolated using Chelex-100 resin and diluted by 1:2.5 for quantitative PCR analysis. Input normalized relative abundance was determined.
structure (smiles),measurement,setting,value
Cc1ccc(-n2cnc(/N=C/N3CCOCC3)c2C(=O)c2ccccc2)cc1 [exemplary compound 1],fold induction at 10 µM,TEAD reporter,8.41
same,number of the Pax7-positive cells compared with DMSO,Balb/c ByJ mice,greater
same,number of the centrally nucleated muscle fibers compared with DMSO,Balb/c ByJ mice,greater
same,"Input %, CTGF-p, Mock ChIP",[1],0.06% and 0.04%
